Assay results published in paper PMC12454493, “Insight on novel sulfamoylphenyl pyrazole derivatives as anticancer carbonic anhydrase inhibitors” (Molecular Diversity, 2024).

Assays:
[1] = tested on: SF-268; test: NCI-60 one-dose SRB screen (CNS Cancer); assay type: cell-based; details: Homo sapiens, single dose 10 µM, 48 h, read-out: Growth inhibition percent (GI %)
Method: (§1) The National Cancer Institute (NCI) Developmental Therapeutic Program (www.dtp.nci.nih.gov) selected the 20 novel synthesized compounds 4a-e, 5a-e, 6a-c, 9a-e, 10 and 11 to test for their anticancer activity at a single dose of 10 µM using SRB assay. […] Supplementary Data S3; Table S1 presents the detailed screening results of the most promising compounds. The preliminary screening’s detailed results for the remaining compounds are elucidated in the (Supplementary Data S3; Table S2).
(§2) The guidelines of the Drug Evaluation Branch’s protocol at the NCI in Bethesda served as the basis for the in vitro anticancer screening assays. at one dose 10 µM against a panel of 60 cancer cell lines. The human tumor cell lines used belonged to nine panels: leukemia, melanoma, lung, colon, CNS, ovarian, renal, prostate and breast cancers using the sulforhodamine B (SRB) assay in a 48 h drug exposure protocol.

[2] = tested on: SNB-75; test: NCI-60 one-dose SRB screen (CNS Cancer); assay type: cell-based; details: Homo sapiens, single dose 10 µM, 48 h, read-out: Growth inhibition percent (GI %)
Method: as §1, §2

[3] = tested on: SF-539; test: NCI-60 one-dose SRB screen (CNS Cancer); assay type: cell-based; details: Homo sapiens, single dose 10 µM, 48 h, read-out: Growth inhibition percent (GI %)
Method: as §1, §2

[4] = tested on: U251; test: NCI-60 one-dose SRB screen (CNS Cancer); assay type: cell-based; details: Homo sapiens, U-251, single dose 10 µM, 48 h, read-out: Growth inhibition percent (GI %)
Method: as §1, §2

[5] = tested on: SNB-19; test: NCI-60 one-dose SRB screen (CNS Cancer); assay type: cell-based; details: Homo sapiens, single dose 10 µM, 48 h, read-out: Growth inhibition percent (GI %)
Method: as §1, §2

[6] = tested on: SF-295; test: NCI-60 one-dose SRB screen (CNS Cancer); assay type: cell-based; details: Homo sapiens, single dose 10 µM, 48 h, read-out: Growth inhibition percent (GI %)
Method: as §1, §2

[7] = tested on: NCI-H23; test: NCI-60 one-dose SRB screen (Non-Small Cell Lung Cancer); assay type: cell-based; details: Homo sapiens, single dose 10 µM, 48 h, read-out: Growth inhibition percent (GI %)
Method: as §1, §2

[8] = tested on: NCI-H460; test: as above; assay type: cell-based; details: Homo sapiens, single dose 10 µM, 48 h, read-out: Growth inhibition percent (GI %)
Method: as §1, §2

[9] = tested on: A549/ATCC; test: as above; assay type: cell-based; details: Homo sapiens, single dose 10 µM, 48 h, read-out: Growth inhibition percent (GI %)
Method: as §1, §2

[10] = tested on: HOP-92; test: as above; assay type: cell-based; details: Homo sapiens, single dose 10 µM, 48 h, read-out: Growth inhibition percent (GI %)
Method: as §1, §2

[11] = tested on: NCI-H226; test: as above; assay type: cell-based; details: Homo sapiens, single dose 10 µM, 48 h, read-out: Growth inhibition percent (GI %)
Method: as §1, §2

[12] = tested on: HOP-62; test: as above; assay type: cell-based; details: Homo sapiens, single dose 10 µM, 48 h, read-out: Growth inhibition percent (GI %)
Method: as §1, §2

[13] = tested on: EKVX; test: as above; assay type: cell-based; details: Homo sapiens, single dose 10 µM, 48 h, read-out: Growth inhibition percent (GI %)
Method: as §1, §2

[14] = tested on: NCI-H522; test: as above; assay type: cell-based; details: Homo sapiens, single dose 10 µM, 48 h, read-out: Growth inhibition percent (GI %)
Method: as §1, §2

[15] = tested on: NCI-H322M; test: as above; assay type: cell-based; details: Homo sapiens, single dose 10 µM, 48 h, read-out: Growth inhibition percent (GI %)
Method: as §1, §2

[16] = tested on: DU-145; test: NCI-60 one-dose SRB screen (Prostate Cancer); assay type: cell-based; details: Homo sapiens, single dose 10 µM, 48 h, read-out: Growth inhibition percent (GI %)
Method: as §1, §2

[17] = tested on: PC-3; test: NCI-60 one-dose SRB screen (Prostate Cancer); assay type: cell-based; details: Homo sapiens, single dose 10 µM, 48 h, read-out: Growth inhibition percent (GI %)
Method: as §1, §2

[18] = tested on: HL-60(TB); test: NCI-60 one-dose SRB screen (Leukemia); assay type: cell-based; details: Homo sapiens, single dose 10 µM, 48 h, read-out: Growth inhibition percent (GI %)
Method: as §1, §2

[19] = tested on: K-562; test: NCI-60 one-dose SRB screen (Leukemia); assay type: cell-based; details: Homo sapiens, K562, single dose 10 µM, 48 h, read-out: Growth inhibition percent (GI %)
Method: as §1, §2

[20] = tested on: RPMI-8226; test: NCI-60 one-dose SRB screen (Leukemia); assay type: cell-based; details: Homo sapiens, single dose 10 µM, 48 h, read-out: Growth inhibition percent (GI %)
Method: as §1, §2

[21] = tested on: CCRF-CEM; test: NCI-60 one-dose SRB screen (Leukemia); assay type: cell-based; details: Homo sapiens, single dose 10 µM, 48 h, read-out: Growth inhibition percent (GI %)
Method: as §1, §2

[22] = tested on: MOLT-4; test: NCI-60 one-dose SRB screen (Leukemia); assay type: cell-based; details: Homo sapiens, single dose 10 µM, 48 h, read-out: Growth inhibition percent (GI %)
Method: as §1, §2

[23] = tested on: SK-MEL-28; test: NCI-60 one-dose SRB screen (Melanoma); assay type: cell-based; details: Homo sapiens, single dose 10 µM, 48 h, read-out: Growth inhibition percent (GI %)
Method: as §1, §2

[24] = tested on: UACC-257; test: NCI-60 one-dose SRB screen (Melanoma); assay type: cell-based; details: Homo sapiens, single dose 10 µM, 48 h, read-out: Growth inhibition percent (GI %)
Method: as §1, §2

[25] = tested on: UACC-62; test: NCI-60 one-dose SRB screen (Melanoma); assay type: cell-based; details: Homo sapiens, single dose 10 µM, 48 h, read-out: Growth inhibition percent (GI %)
Method: as §1, §2

[26] = tested on: MALME-3M; test: NCI-60 one-dose SRB screen (Melanoma); assay type: cell-based; details: Homo sapiens, single dose 10 µM, 48 h, read-out: Growth inhibition percent (GI %)
Method: as §1, §2

[27] = tested on: LOX IMVI; test: NCI-60 one-dose SRB screen (Melanoma); assay type: cell-based; details: Homo sapiens, single dose 10 µM, 48 h, read-out: Growth inhibition percent (GI %)
Method: as §1, §2

[28] = tested on: SK-MEL-5; test: NCI-60 one-dose SRB screen (Melanoma); assay type: cell-based; details: Homo sapiens, single dose 10 µM, 48 h, read-out: Growth inhibition percent (GI %)
Method: as §1, §2

[29] = tested on: MDA-MB-435; test: NCI-60 one-dose SRB screen (Melanoma); assay type: cell-based; details: Homo sapiens, single dose 10 µM, 48 h, read-out: Growth inhibition percent (GI %)
Method: as §1, §2

[30] = tested on: M14; test: NCI-60 one-dose SRB screen (Melanoma); assay type: cell-based; details: Homo sapiens, single dose 10 µM, 48 h, read-out: Growth inhibition percent (GI %)
Method: as §1, §2

[31] = tested on: SK-MEL-2; test: NCI-60 one-dose SRB screen (Melanoma); assay type: cell-based; details: Homo sapiens, single dose 10 µM, 48 h, read-out: Growth inhibition percent (GI %)
Method: as §1, §2

[32] = target: hCA IX (Homo sapiens, UniProt Q16790); test: CA inhibitory activity, spectrophotometric p-NPA assay; assay type: biochemical; details: p-NPA substrate, pH 7.5, 25 °C, triplicate; read-out: IC50 (µM) ± SD hCA IX
[33] = tested on: SK-OV-3; test: NCI-60 one-dose SRB screen (Ovarian cancer); assay type: cell-based; details: Homo sapiens, single dose 10 µM, 48 h, read-out: Growth inhibition percent (GI %)
Method: as §1, §2

[34] = tested on: OVCAR-8; test: NCI-60 one-dose SRB screen (Ovarian cancer); assay type: cell-based; details: Homo sapiens, single dose 10 µM, 48 h, read-out: Growth inhibition percent (GI %)
Method: as §1, §2

[35] = tested on: OVCAR-3; test: NCI-60 one-dose SRB screen (Ovarian cancer); assay type: cell-based; details: Homo sapiens, single dose 10 µM, 48 h, read-out: Growth inhibition percent (GI %)
Method: as §1, §2

[36] = tested on: OVCAR-5; test: NCI-60 one-dose SRB screen (Ovarian cancer); assay type: cell-based; details: Homo sapiens, single dose 10 µM, 48 h, read-out: Growth inhibition percent (GI %)
Method: as §1, §2

[37] = tested on: NCI/ADR-RES; test: NCI-60 one-dose SRB screen (Ovarian cancer); assay type: cell-based; details: Homo sapiens, single dose 10 µM, 48 h, read-out: Growth inhibition percent (GI %)
Method: as §1, §2

[38] = tested on: OVCAR-4; test: NCI-60 one-dose SRB screen (Ovarian cancer); assay type: cell-based; details: Homo sapiens, single dose 10 µM, 48 h, read-out: Growth inhibition percent (GI %)
Method: as §1, §2

[39] = tested on: IGROV1; test: NCI-60 one-dose SRB screen (Ovarian cancer); assay type: cell-based; details: Homo sapiens, IGROV-1, single dose 10 µM, 48 h, read-out: Growth inhibition percent (GI %)
Method: as §1, §2

[40] = tested on: BT-549; test: NCI-60 one-dose SRB screen (Breast Cancer); assay type: cell-based; details: Homo sapiens, single dose 10 µM, 48 h, read-out: Growth inhibition percent (GI %)
Method: as §1, §2

[41] = tested on: MDA-MB-231/ATCC; test: NCI-60 one-dose SRB screen (Breast Cancer); assay type: cell-based; details: Homo sapiens, single dose 10 µM, 48 h, read-out: Growth inhibition percent (GI %)
Method: as §1, §2

[42] = tested on: HS 578T; test: NCI-60 one-dose SRB screen (Breast Cancer); assay type: cell-based; details: Homo sapiens, single dose 10 µM, 48 h, read-out: Growth inhibition percent (GI %)
Method: as §1, §2

[43] = tested on: MDA-MB-468; test: NCI-60 one-dose SRB screen (Breast Cancer); assay type: cell-based; details: Homo sapiens, single dose 10 µM, 48 h, read-out: Growth inhibition percent (GI %)
Method: as §1, §2

[44] = tested on: T-47D; test: NCI-60 one-dose SRB screen (Breast Cancer); assay type: cell-based; details: Homo sapiens, T47D, single dose 10 µM, 48 h, read-out: Growth inhibition percent (GI %)
Method: as §1, §2

[45] = tested on: MCF-7; test: NCI-60 one-dose SRB screen (Breast Cancer); assay type: cell-based; details: Homo sapiens, MCF7, single dose 10 µM, 48 h, read-out: Growth inhibition percent (GI %)
Method: as §1, §2

CCOC(=O)c1ccc(NC(=O)COC(=O)c2cn(-c3ccc(S(N)(=O)=O)cc3)nc2-c2ccc(Br)cc2)cc1 [Compound 5d, 2-[(4-(Ethoxycarbonyl)phenyl)amino]-2-oxoethyl 3-(4-bromophenyl)-1-(4-sulfamoylphenyl)-1H-pyrazole-4-carboxylate]
inhibition at 10 µM [1]: 64.1% | inhibition at 10 µM [2]: 74.9% | inhibition at 10 µM [3]: 63.3% | inhibition at 10 µM [4]: 57.9% | inhibition at 10 µM [5]: 57.9% | inhibition at 10 µM [6]: 57.5% | inhibition at 10 µM [7]: 49.4% | inhibition at 10 µM [8]: 65.7% | inhibition at 10 µM [9]: 62.9% | inhibition at 10 µM [10]: 72.1% | inhibition at 10 µM [11]: 48.3% | inhibition at 10 µM [12]: 26.2% | inhibition at 10 µM [13]: 62.5% | inhibition at 10 µM [14]: 64.9% | inhibition at 10 µM [15]: 21.2% | inhibition at 10 µM [16]: 45.8% | inhibition at 10 µM [17]: 78.8% | inhibition at 10 µM [18]: 89.4% | inhibition at 10 µM [19]: 80.4% | inhibition at 10 µM [20]: 80.3% | inhibition at 10 µM [21]: 85.8% | inhibition at 10 µM [22]: 94% | inhibition at 10 µM [23]: 55.6% | inhibition at 10 µM [24]: 38.3% | inhibition at 10 µM [25]: 58.7% | inhibition at 10 µM [26]: 46.1% | inhibition at 10 µM [27]: 72.9% | inhibition at 10 µM [28]: 36.3% | inhibition at 10 µM [29]: 61.2% | inhibition at 10 µM [30]: 73.7% | inhibition at 10 µM [31]: 49.1% | IC50 [32]: 0.631 ± 0.029 µM | inhibition at 10 µM [33]: 29% | inhibition at 10 µM [34]: 13.3% | inhibition at 10 µM [35]: 62.6% | inhibition at 10 µM [36]: 38% | inhibition at 10 µM [37]: 28.2% | inhibition at 10 µM [38]: 64% | inhibition at 10 µM [39]: 31.7% | inhibition at 10 µM [40]: 36.6% | inhibition at 10 µM [41]: 43.7% | inhibition at 10 µM [42]: 51.3% | inhibition at 10 µM [43]: 67.6% | inhibition at 10 µM [44]: 60.2% | inhibition at 10 µM [45]: 91%
